Experimental data: patent US12281122B1, “PI3K inhibitors” (Cogent Biosciences, Inc., priority 2023, dated 2025)
pIC50: −log10 of the molar value.

Tests used:
[1] = test system: T47D (PI3Kα-H1047R) cell line; assay: HTRF phospho-AKT(S473) cell assay in T47D cells; assay type: cell-based, human; settings: Homo sapiens; T47D (PI3Kα-H1047R) cells, HTRF phospho-AKT(S473), 2 hours compound incubation
Outline: (§1)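 HTRF read-out of phospho-AKT(S473) in lysates gave IC50 values after 2 h compound exposure at 37° C. Dose series was 12 points at 1:3, topping at 5 μM for T47D and 10 μM for SKBR3. Only SKBR3 received 70 ng/ml PDGF-BB during the last 15 minutes.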

[2] = test system: SKBR3 (PI3Kα-Wild Type) cell line; assay: HTRF phospho-AKT(S473) cell assay in SKBR3 cells; assay type: cell-based, human; settings: Homo sapiens, SK-BR-3; SKBR3 (PI3Kα-Wild Type) cells, HTRF phospho-AKT(S473), 2 hours compound incubation, PDGF-BB stimulated
Outline: as §1

Row | pIC50 [1] | pIC50 [2] | Compound
1 | 6.30 to 6.60 | 5.30 to 6.00 | Cc1cc([C@@H](C)Nc2ccc(Cl)nc2C(=O)NS(C)(=O)=O)c2nc(N3C[C@@H]4[C@H](C3)[C@H]4c3ccnn3C)n(C)c(=O)c2c1 [Compound 296, 6-chloro-3-(((R)-1-(3,6-dimethyl-2-((1R,5S,6R)-6-(1-methyl-1H-pyrazol-5-yl)-3-azabicyclo[3.1.0]hexan-3-yl)-4-oxo-3,4-dihydroquinazolin-8-yl)ethyl)amino)-N-(methylsulfonyl) picolinamide]
2 | > 6.60 | ≤ 5.30 | Cc1cc([C@@H](C)Nc2ccc(Cl)nc2C(=O)NS(C)(=O)=O)c2nc(N3CCC(C)(c4ccn(C)n4)CC3)n(C)c(=O)c2c1 [Compound 301, (R)-6-chloro-3-((1-(3,6-dimethyl-2-(4-methyl-4-(1-methyl-1H-pyrazol-3-yl)piperidin-1-yl)-4-oxo-3,4-dihydroquinazolin-8-yl)ethyl)amino)-N-(methylsulfonyl) picolinamide]
3 | > 6.60 | 5.30 to 6.00 | Cc1cc([C@@H](C)Nc2ccc(Cl)nc2C(=O)NS(C)(=O)=O)c2nc(N3CCC(C)(c4ccnn4C)CC3)n(C)c(=O)c2c1 [Compound 302, (R)-6-chloro-3-((1-(3,6-dimethyl-2-(4-methyl-4-(1-methyl-1H-pyrazol-5-yl)piperidin-1-yl)-4-oxo-3,4-dihydroquinazolin-8-yl)ethyl)amino)-N-(methylsulfonyl) picolinamide]
4 | 6.30 to 6.60 | 5.30 to 6.00 | Cc1cc([C@@H](C)Nc2ccc(Cl)nc2C(=O)NS(C)(=O)=O)c2nc(-c3ccc(-c4noc(C)n4)nc3)n(C)c(=O)c2c1 [Compound 303, (R)-6-chloro-3-((1-(3,6-dimethyl-2-(6-(5-methyl-1,2,4-oxadiazol-3-yl)pyridin-3-yl)-4-oxo-3,4-dihydroquinazolin-8-yl)ethyl)amino)-N-(methylsulfonyl) picolinamide]
5 | 6.30 to 6.60 | ≤ 5.30 | Cc1cc([C@@H](C)Nc2ccc(Cl)nc2C(=O)NS(C)(=O)=O)c2nc(N3CCC(n4nc(C#N)c5ccccc54)CC3)n(C)c(=O)c2c1 [Compound 304, (R)-6-chloro-3-((1-(2-(4-(3-cyano-1H-indazol-1-yl)piperidin-1-yl)-3,6-dimethyl-4-oxo-3,4-dihydroquinazolin-8-yl)ethyl)amino)-N-(methylsulfonyl) picolinamide]
6 | > 6.60 | ≤ 5.30 | Cc1cc([C@@H](C)Nc2ccc(Cl)nc2C(=O)NS(C)(=O)=O)c2nc(-c3ccc(N4CC5CCC(C4)C5O)nc3)n(C)c(=O)c2c1 (stereo partly drawn) [Compound 305, 6-chloro-3-(((1R)-1-(2-(6-(8-hydroxy-3-azabicyclo[3.2.1]octan-3-yl)pyridin-3-yl)-3,6-dimethyl-4-oxo-3,4-dihydroquinazolin-8-yl)ethyl)amino)-N-(methylsulfonyl) picolinamide]
7 | > 6.60 | ≤ 5.30 | Cc1cc([C@@H](C)Nc2ccc(Cl)nc2C(=O)NS(C)(=O)=O)c2nc(N3CCC(c4nn(C)cc4N(C)C)CC3)n(C)c(=O)c2c1 [Compound 308, (R)-6-chloro-3-((1-(2-(4-(4-(dimethylamino)-1-methyl-1H-pyrazol-3-yl)piperidin-1-yl)-3,6-dimethyl-4-oxo-3,4-dihydroquinazolin-8-yl)ethyl)amino)-N-(methylsulfonyl) picolinamide]
8 | 6.30 to 6.60 | ≤ 5.30 | Cc1cc([C@@H](C)Nc2ccc(Cl)nc2C(=O)NS(C)(=O)=O)c2nc(N3CCC(n4nccc4N(C)C)CC3)n(C)c(=O)c2c1 [Compound 309, (R)-6-chloro-3-((1-(2-(4-(5-(dimethylamino)-1H-pyrazol-1-yl)piperidin-1-yl)-3,6-dimethyl-4-oxo-3,4-dihydroquinazolin-8-yl)ethyl)amino)-N-(methylsulfonyl) picolinamide]
9 | > 6.60 | 5.30 to 6.00 | Cc1cc([C@@H](C)Nc2ccc(Cl)nc2C(=O)NS(C)(=O)=O)c2nc(N3CCC(n4ccc(N(C)C)n4)CC3)n(C)c(=O)c2c1 [Compound 310, (R)-6-chloro-3-((1-(2-(4-(3-(dimethylamino)-1H-pyrazol-1-yl)piperidin-1-yl)-3,6-dimethyl-4-oxo-3,4-dihydroquinazolin-8-yl)ethyl)amino)-N-(methylsulfonyl) picolinamide]
10 | > 6.60 | 5.30 to 6.00 | COc1cnn(C2CCN(c3nc4c([C@@H](C)Nc5ccc(Cl)nc5C(=O)NS(C)(=O)=O)cc(C)cc4c(=O)n3C)CC2)c1 [Compound 311, (R)-6-chloro-3-((1-(2-(4-(4-methoxy-1H-pyrazol-1-yl)piperidin-1-yl)-3,6-dimethyl-4-oxo-3,4-dihydroquinazolin-8-yl)ethyl)amino)-N-(methylsulfonyl) picolinamide]
11 | > 6.60 | 5.30 to 6.00 | Cc1cc([C@@H](C)Nc2ccc(Cl)nc2C(=O)NS(C)(=O)=O)c2nc(N3CCC(c4ccn(-c5cccnc5)n4)CC3)n(C)c(=O)c2c1 [Compound 312, (R)-6-chloro-3-((1-(3,6-dimethyl-4-oxo-2-(4-(1-(pyridin-3-yl)-1H-pyrazol-3-yl)piperidin-1-yl)-3,4-dihydroquinazolin-8-yl)ethyl)amino)-N-(methylsulfonyl) picolinamide]
12 | > 6.60 | ≤ 5.30 | Cc1cc([C@@H](C)Nc2ccc(Cl)nc2C(=O)NS(C)(=O)=O)c2nc(N3C[C@H]4C[C@@H](c5ccn(C)n5)[C@@H]3C4)n(C)c(=O)c2c1 [Compound 315, 6-chloro-3-(((R)-1-(3,6-dimethyl-2-((1S,4S,6R)-6-(1-methyl-1H-pyrazol-3-yl)-2-azabicyclo[2.2.1]heptan-2-yl)-4-oxo-3,4-dihydroquinazolin-8-yl)ethyl)amino)-N-(methylsulfonyl) picolinamide]
13 | 6.30 to 6.60 | 5.30 to 6.00 | COc1cn(C)nc1C1CCN(c2nc3c([C@@H](C)Nc4ccc(Cl)nc4C(=O)NS(C)(=O)=O)cc(C)cc3c(=O)n2C)CC1 [Compound 316, (R)-6-chloro-3-((1-(2-(4-(4-methoxy-1-methyl-1H-pyrazol-3-yl)piperidin-1-yl)-3,6-dimethyl-4-oxo-3,4-dihydroquinazolin-8-yl)ethyl)amino)-N-(methylsulfonyl) picolinamide]
14 | 6.30 to 6.60 | 5.30 to 6.00 | COc1ccn(C2CCN(c3nc4c([C@@H](C)Nc5ccc(Cl)nc5C(=O)NS(C)(=O)=O)cc(C)cc4c(=O)n3C)CC2)n1 [Compound 317, (R)-6-chloro-3-((1-(2-(4-(3-methoxy-1H-pyrazol-1-yl)piperidin-1-yl)-3,6-dimethyl-4-oxo-3,4-dihydroquinazolin-8-yl)ethyl)amino)-N-(methylsulfonyl) picolinamide]
15 | > 6.60 | 5.30 to 6.00 | COc1ccnn1C1CCN(c2nc3c([C@@H](C)Nc4ccc(Cl)nc4C(=O)NS(C)(=O)=O)cc(C)cc3c(=O)n2C)CC1 [Compound 318, (R)-6-chloro-3-((1-(2-(4-(5-methoxy-1H-pyrazol-1-yl)piperidin-1-yl)-3,6-dimethyl-4-oxo-3,4-dihydroquinazolin-8-yl)ethyl)amino)-N-(methylsulfonyl) picolinamide]
16 | > 6.60 | 5.30 to 6.00 | Cc1cc([C@@H](C)Nc2ccc(Cl)nc2C(=O)NS(C)(=O)=O)c2nc(N3CCC(c4ccn(C)c(=O)c4)CC3)n(C)c(=O)c2c1 [Compound 319, (R)-6-chloro-3-((1-(3,6-dimethyl-2-(4-(1-methyl-2-oxo-1,2-dihydropyridin-4-yl)piperidin-1-yl)-4-oxo-3,4-dihydroquinazolin-8-yl)ethyl)amino)-N-(methylsulfonyl) picolinamide]

Row | Compound | pIC50 [1] | pIC50 [2]
17 | Cc1cc([C@@H](C)Nc2ccc(Cl)nc2C(=O)NS(C)(=O)=O)c2nc(N3[C@@H]4CC[C@H]3C[C@@H](c3cnn(C)c3)C4)n(C)c(=O)c2c1 [Compound 297, 6-chloro-3-(((R)-1-(3,6-dimethyl-2-((1R,3R,5S)-3-(1-methyl-1H-pyrazol-4-yl)-8-azabicyclo[3.2.1]octan-8-yl)-4-oxo-3,4-dihydroquinazolin-8-yl)ethyl)amino)-N-(methylsulfonyl) picolinamide] | 6.30 to 6.60 | ≤ 5.30
18 | Cc1cc([C@@H](C)Nc2ccc(Cl)nc2C(=O)NS(C)(=O)=O)c2nc(N3[C@@H]4CC[C@H]3C[C@H](c3cnn(C)c3)C4)n(C)c(=O)c2c1 [Compound 298, 6-chloro-3-(((R)-1-(3,6-dimethyl-2-((1R,3S,5S)-3-(1-methyl-1H-pyrazol-4-yl)-8-azabicyclo[3.2.1]octan-8-yl)-4-oxo-3,4-dihydroquinazolin-8-yl)ethyl)amino)-N-(methylsulfonyl) picolinamide] | > 6.60 | ≤ 5.30
19 | Cc1cc([C@@H](C)Nc2ccc(Cl)nc2C(=O)NS(C)(=O)=O)c2nc(N3[C@@H]4CC[C@H]3C[C@@H](c3cnc(C)nc3)C4)n(C)c(=O)c2c1 [Compound 299, 6-chloro-3-(((R)-1-(3,6-dimethyl-2-((1R,3R,5S)-3-(2-methylpyrimidin-5-yl)-8-azabicyclo[3.2.1]octan-8-yl)-4-oxo-3,4-dihydroquinazolin-8-yl)ethyl)amino)-N-(methylsulfonyl) picolinamide] | > 6.60 | 5.30 to 6.00
20 | Cc1cc([C@@H](C)Nc2ccc(Cl)nc2C(=O)NS(C)(=O)=O)c2nc(N3[C@@H]4CC[C@H]3C[C@H](c3cnc(C)nc3)C4)n(C)c(=O)c2c1 [Compound 300, 6-chloro-3-(((R)-1-(3,6-dimethyl-2-((1R,3S,5S)-3-(2-methylpyrimidin-5-yl)-8-azabicyclo[3.2.1]octan-8-yl)-4-oxo-3,4-dihydroquinazolin-8-yl)ethyl)amino)-N-(methylsulfonyl) picolinamide] | > 6.60 | ≤ 5.30
